Values after ≈ are worked out from the molar mass of the structure shown.
Assays:
[1] = tested on: APAE006 (strain of P. aeruginosa in which all efflux pumps are inactivated); experiment: microbe, parasite or virus in culture; assay type: cell-based; settings: Pseudomonas aeruginosa, read-out: MIC APAE006, P. aeruginosa, all efflux pumps inactivated
Procedure, shortened: (§1)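 Minimum inhibitory concentrations followed CLSI broth microdilution guidelines: cation-adjusted Mueller-Hinton broth, 2-fold serial drug dilutions, final inoculum 3×10^5–7×10^5 CFU/mL, ambient air at 35° C. for 18-24 hours. Quality-control strains and levofloxacin monitored performance.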

[2] = tested on: AABA1060 (clinical isolate of Acinetobacter baumannii); experiment: MIC broth microdilution, AABA1060; assay type: cell-based; settings: Acinetobacter baumannii, read-out: MIC AABA1060
Procedure, shortened: (§2)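 MICs come from broth microdilution in cation-adjusted Mueller-Hinton broth, final inoculum 3×10^5–7×10^5 CFU/mL, 18-24 hours at 35° C. Levofloxacin and QC strains served as assay controls.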

[3] = tested on: AECO063 (ATCC25922 bearing an acrAB mutation); experiment: microbe, parasite or virus in culture; assay type: cell-based, E. coli; settings: Escherichia coli, ATCC25922, read-out: MIC AECO063
Procedure, shortened: as §2

[4] = tested on: ASAU001 (laboratory strain of S. aureus, ATCC29213); experiment: MIC broth microdilution, ASAU001; assay type: cell-based; settings: Staphylococcus aureus, ATCC29213, read-out: MIC ASAU001
Procedure, shortened: as §2

[5] = tested on: APAE006 in the presence of 8 micrograms per milliliter of polymyxin B nonapeptide; assay type: cell-based, P. aeruginosa; settings: in the presence of 8 micrograms per milliliter of polymyxin B nonapeptide
Procedure, shortened: as §1

AECO001 HSA AGP = experiment: MIC broth microdilution, AECO001 HSA AGP; assay type: cell-based, E. coli; settings: Escherichia coli
Procedure, shortened: as §2

APAE001 (ATCC27853) = experiment: MIC broth microdilution, APAE001; assay type: cell-based, P. aeruginosa; settings: Pseudomonas aeruginosa, ATCC27853, read-out: MIC APAE001, APAE001 is ATCC27853
Procedure, shortened: as §2

AECO001 (ATCC25922) = experiment: MIC broth microdilution, AECO001; assay type: cell-based, E. coli; settings: Escherichia coli, ATCC25922, read-out: MIC AECO001
Procedure, shortened: as §2

SMILES	MIC [1]	MIC [2]	MIC [3]	MIC [4]	MIC APAE006 + PMBN [5]	MIC (AECO001 HSA AGP)	MIC (APAE001 (ATCC27853))	MIC (AECO001 (ATCC25922))
C[C@@H](N)[C@H](NC(=O)c1ccc(C#Cc2ccc(CCN)cc2)cc1)C(=O)NO [Example 137-4]	16 to 64 µg/mL (≈ 42.1 to 168 µM)	> 64 µg/mL	16 to 64 µg/mL (≈ 42.1 to 168 µM)	> 64 µg/mL	C (MIC's of greater than 16.0 μg/mL to 64.0 μg/mL = C)	> 64 µg/mL	> 64 µg/mL	> 64 µg/mL
C[C@@H](N)[C@H](NC(=O)c1ccc(/C=C/C#Cc2ccncc2)cc1)C(=O)NO [Example 114-8]	< 2 µg/mL	2 to 16 µg/mL (≈ 5.49 to 43.9 µM)	< 2 µg/mL	16 to 64 µg/mL (≈ 43.9 to 176 µM)	A (MIC's of 2.0 μg/mL or less = A)	2 to 16 µg/mL (≈ 5.49 to 43.9 µM)	< 2 µg/mL	< 2 µg/mL
C[C@@H](N)[C@H](NC(=O)c1ccc(C#Cc2ccc(CN3CCN(S(C)(=O)=O)CC3)cc2)cc1)C(=O)NO [Example 115-7]	< 2 µg/mL	2 to 16 µg/mL (≈ 3.89 to 31.2 µM)	< 2 µg/mL	> 64 µg/mL	A (MIC's of 2.0 μg/mL or less = A)	2 to 16 µg/mL (≈ 3.89 to 31.2 µM)	2 to 16 µg/mL (≈ 3.89 to 31.2 µM)	< 2 µg/mL
O=C(CNC1CC1)NC[C@H](NC(=O)c1ccc(C#C/C=C/c2ccccc2)cc1)C(=O)NO [Example 105-1, N—[(S)-2-(2-Cyclopropylamino-acetylamino)-1-hydroxycarbamoyl-ethyl]-4-((E)-4-phenyl-but-3-en-1-ynyl)-benzamide]	< 2 µg/mL	16 to 64 µg/mL (≈ 35.8 to 143 µM)	< 2 µg/mL	16 to 64 µg/mL (≈ 35.8 to 143 µM)	A (MIC's of 2.0 μg/mL or less = A)	2 to 16 µg/mL (≈ 4.48 to 35.8 µM)	2 to 16 µg/mL (≈ 4.48 to 35.8 µM)	< 2 µg/mL
C[C@@H](O)[C@H](NC(=O)c1ccc(N2CCN(c3ccc(CN4CCOCC4)cc3)CC2)cc1)C(=O)NO [Example 43-7, N-((1S,2R)-2-Hydroxy-1-hydroxycarbamoyl-propyl)-4-[4-(4-morpholin-4-ylmethyl-phenyl)-piperazin-1-yl]-benzamide]	< 2 µg/mL	> 64 µg/mL	16 to 64 µg/mL (≈ 32.2 to 129 µM)	> 64 µg/mL	A (MIC's of 2.0 μg/mL or less = A)	> 64 µg/mL	16 to 64 µg/mL (≈ 32.2 to 129 µM)	> 64 µg/mL
C[C@H](O)[C@H](NC(=O)c1ccc(C#C/C=C/c2ccc(CNC3CC3)cc2)cc1)C(=O)NO [Example 102-4]	< 2 µg/mL	16 to 64 µg/mL (≈ 36.9 to 148 µM)	< 2 µg/mL	> 64 µg/mL	A (MIC's of 2.0 μg/mL or less = A)	2 to 16 µg/mL (≈ 4.61 to 36.9 µM)	2 to 16 µg/mL (≈ 4.61 to 36.9 µM)	< 2 µg/mL
O=C(NC(C(=O)NO)C(F)(F)F)c1ccc(/C=C/C#Cc2ccc(CN3CCOCC3)cc2)cc1 (centres unmarked) [Example 110-12]	< 2 µg/mL	< 2 µg/mL	< 2 µg/mL	16 to 64 µg/mL (≈ 32.8 to 131 µM)	A (MIC's of 2.0 μg/mL or less = A)	< 2 µg/mL	2 to 16 µg/mL (≈ 4.1 to 32.8 µM)	< 2 µg/mL
C[C@@H](N)[C@H](NC(=O)c1ccc(C#Cc2ccc(CN3CCC(F)(F)CC3)cc2)cc1)C(=O)NO [Example 115-3]	< 2 µg/mL	2 to 16 µg/mL (≈ 4.25 to 34 µM)	< 2 µg/mL	> 64 µg/mL	A (MIC's of 2.0 μg/mL or less = A)	< 2 µg/mL	2 to 16 µg/mL (≈ 4.25 to 34 µM)	< 2 µg/mL
NC[C@H](NC(=O)c1ccc(C#C/C=C/c2ccc(CO)cc2)cc1)C(=O)NO [Example 101-2]	< 2 µg/mL	16 to 64 µg/mL (≈ 42.2 to 169 µM)	< 2 µg/mL	16 to 64 µg/mL (≈ 42.2 to 169 µM)	A (MIC's of 2.0 μg/mL or less = A)	16 to 64 µg/mL (≈ 42.2 to 169 µM)	2 to 16 µg/mL (≈ 5.27 to 42.2 µM)	< 2 µg/mL
C[C@@H](N)[C@H](NC(=O)c1ccc(C#CC#Cc2ccccc2Cl)cc1)C(=O)NO [Example 82-10]	< 2 µg/mL	2 to 16 µg/mL (≈ 5.05 to 40.4 µM)	< 2 µg/mL	2 to 16 µg/mL (≈ 5.05 to 40.4 µM)	A (MIC's of 2.0 μg/mL or less = A)	2 to 16 µg/mL (≈ 5.05 to 40.4 µM)	2 to 16 µg/mL (≈ 5.05 to 40.4 µM)	< 2 µg/mL

From patent US9617256B2 (priority 2007, dated 2017)
